The Emax is the size of the effect at its maximum, as opposed to the concentration needed.

Assay [1] addresses T1, human muscarinic M1 receptor (Homo sapiens, UniProt P11229).
T1 sequence (P11229 1-460): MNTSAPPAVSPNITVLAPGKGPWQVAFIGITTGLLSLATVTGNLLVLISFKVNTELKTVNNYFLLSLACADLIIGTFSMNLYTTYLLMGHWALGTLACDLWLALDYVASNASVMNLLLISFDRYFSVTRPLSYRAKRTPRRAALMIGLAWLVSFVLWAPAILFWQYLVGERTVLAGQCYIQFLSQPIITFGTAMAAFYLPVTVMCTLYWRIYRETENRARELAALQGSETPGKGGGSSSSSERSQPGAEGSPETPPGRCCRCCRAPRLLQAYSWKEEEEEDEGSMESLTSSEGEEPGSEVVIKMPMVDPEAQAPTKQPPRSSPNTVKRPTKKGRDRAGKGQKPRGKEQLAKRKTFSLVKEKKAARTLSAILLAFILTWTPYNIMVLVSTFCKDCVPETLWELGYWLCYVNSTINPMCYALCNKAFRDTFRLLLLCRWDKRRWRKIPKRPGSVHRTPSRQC
The assay can be described thus: Alphascreen Surefire phospho-ERK1/2 functional assay, M1. The assay is classed as cell-based. The conditions noted are these: for EC50: CHO cells stably expressing human M1, phospho-ERK1/2, * = variable results, read-out: pEC50 M1 (converted); for Emax: CHO, read-out: % Emax cf. ACh, M1, CHO cells stably expressing human M1, relative to ACh. A general note: Alpha assays give light when donor and acceptor beads are brought close together.
Procedure: CHO cells stably expressing the human muscarinic M1, M2, M3 or M4 receptor were plated (25K/well) onto 96-well tissue culture plates in MEM-alpha+10% dialysed FBS. Once adhered, cells were serum-starved overnight. Agonist stimulation was performed by the addition of 5 μL agonist to the cells for 5 min (37° C.). Media was removed and 50 μL of lysis buffer added. After 15 min, a 4 μL sample was transferred to 384-well plate and 7 μL of detection mixture added. Plates were incubated for 2 h with gentle agitation in the dark and then read on a PHERAstar plate reader.
pEC50 and Emax figures were calculated from the resulting data for each receptor subtype.

Assay [2] deals with T2, human muscarinic M4 receptor (Homo sapiens, UniProt P08173).
T2 construct: expressed in transfected cells
T2 sequence (P08173 1-479): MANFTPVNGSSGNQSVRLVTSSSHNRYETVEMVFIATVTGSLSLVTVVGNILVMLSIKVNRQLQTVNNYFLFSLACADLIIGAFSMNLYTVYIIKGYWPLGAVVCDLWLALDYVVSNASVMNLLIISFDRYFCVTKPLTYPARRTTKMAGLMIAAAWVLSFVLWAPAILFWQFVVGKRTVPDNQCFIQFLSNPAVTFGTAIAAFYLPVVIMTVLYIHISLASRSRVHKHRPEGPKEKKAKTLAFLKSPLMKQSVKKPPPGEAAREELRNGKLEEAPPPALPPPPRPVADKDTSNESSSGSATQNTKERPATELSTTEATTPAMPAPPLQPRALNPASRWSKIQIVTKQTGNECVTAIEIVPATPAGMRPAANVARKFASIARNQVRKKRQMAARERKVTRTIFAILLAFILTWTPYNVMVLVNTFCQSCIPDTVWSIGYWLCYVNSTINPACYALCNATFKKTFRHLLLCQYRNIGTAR
The assay can be described thus: Alphascreen Surefire phospho-ERK1/2 functional assay, M4. It is filed as cell-based. As to conditions: for EC50: CHO cells stably expressing human M4, phospho-ERK1/2, * = variable results, read-out: pEC50 M4 (converted); for Emax: CHO, read-out: % Emax cf. ACh, M4, CHO cells stably expressing human M4, relative to ACh; for selectivity for the M4 receptor relative to the M1 receptor: functional assay of Example A.

For the molecule `COC(=O)N1CCC2(CC(N3CCC(c4ccnn4C)CC3)C2)C1` (mixture of isomers) [1-20 Mixture of diastereomers, methyl 2-[4-(1-methyl-1H-pyrazol-5-yl)piperidin-1-yl]-6-azaspiro[3.4]octane-6-carboxylate], in assay [1], the EC50 was more than 20000 nM and the maximal response (Emax) amounted to 62%. In addition, in assay [2], the EC50 is 1000 nM and the Emax came to 56%.

As to `CCOC(=O)N1CCC2(CC(N3CCC(c4nc(C(F)(F)F)c[nH]4)CC3)C2)C1` (single isomer, unassigned) [1-3 Isomer 2, ethyl 2-(4-(4-(trifluoromethyl)-1H-imidazol-2-yl)piperidin-1-yl)-6-azaspiro[3.4]octane-6-carboxylate], the EC50 in assay [1] is 501 nM; in assay [2], 200 nM. The maximal response (Emax) in assay [1] worked out at 30%; in assay [2], 41%.

For the molecule `CCOC(=O)N1CCC2(CC(N3CCC(c4nc(C#N)c[nH]4)CC3)C2)C1` (single isomer, unassigned) [1-4 Isomer 2, ethyl 2-[4-(4-cyano-1H-imidazol-2-yl)piperidin-1-yl]-6-azaspiro[3.4]octane-6-carboxylate], in assay [1], the EC50 was 1000 nM and the Emax was found to be 55%. Besides, in assay [2], the EC50 was 251 nM and the Emax stood at 67%.

Regarding `COC(=O)N1CCC2(CC(N3CCC(c4ncc(C)n4C)CC3)C2)C1` (single isomer, unassigned) [1-9 Isomer 2, methyl 2-[4-(1,5-dimethyl-1H-imidazol-2-yl)piperidin-1-yl]-6-azaspiro[3.4]octane-6-carboxylate], in assay [1], the EC50 was more than 20000 nM and the maximal response (Emax) amounted to 57%. Moreover, in assay [2], the EC50 was 794 nM and the Emax stood at 48%.

As to `CCOC(=O)N1CCC2(CC(N3CCC(c4ncc(C)n4C)CC3)C2)C1` (single isomer, unassigned) [1-10 Isomer 2, ethyl 2-[4-(1,5-dimethyl-1H-imidazol-2-yl)piperidin-1-yl]-6-azaspiro[3.4]octane-6-carboxylate], in assay [1], the EC50 is 5010 nM and the Emax was determined as 62%. Besides, in assay [2], the EC50 was 251 nM and the Emax came to 106%.

For the molecule `COC(=O)N1CCC2(CC(N3CCC(c4nc(C)cn4C)CC3)C2)C1` (single isomer, unassigned) [1-11 Isomer 2, methyl 2-[4-(1,4-dimethyl-1H-imidazol-2-yl)piperidin-1-yl]-6-azaspiro[3.4]octane-6-carboxylate], the EC50 in assay [1] was 1580 nM; in assay [2], 251 nM. In addition, the results for the maximal response (Emax) in assay [1] and in assay [2] were 98% and 85%, respectively.

As for `COC(=O)N1CCC2(CC(N3CCC(c4ncc(Cl)n4C)CC3)C2)C1` (single isomer, unassigned) [1-13 Isomer 2, methyl 2-[4-(5-chloro-1-methyl-1H-imidazol-2-yl)piperidin-1-yl]-6-azaspiro[3.4]octane-6-carboxylate], in assay [1], the EC50 was 1580 nM and the Emax is 61%. Besides, in assay [2], the EC50 was 398 nM and the Emax came to 86%.

As for `CCOC(=O)N1CCC2(CC(N3CCC(c4cc(N)n[nH]4)CC3)C2)C1` (single isomer, unassigned) [1-19 Isomer 2, ethyl 2-[4-(3-amino-1H-pyrazol-5-yl)piperidin-1-yl]-6-azaspiro[3.4]octane-6-carboxylate], in assay [1], the EC50 was 794 nM and the Emax is 83%. Besides, in assay [2], the EC50 was 7940 nM and the Emax stood at 48%.

With `CCOC(=O)N1CCC2(CC(N3CCC(c4ccn(C)n4)CC3)C2)C1` (single isomer, unassigned) [1-22 Isomer 2, ethyl 2-[4-(1-methyl-1H-pyrazol-3-yl)piperidin-1-yl]-6-azaspiro[3.4]octane-6-carboxylate], the figures for the EC50 in assay [1] and in assay [2] were 200 nM and more than 20000 nM, respectively. Besides, the Emax came to 47% in assay [1] and 20% in assay [2].

As for `CCOC(=O)N1CCC2(CC(N3CCC(c4nnc(CC)[nH]4)CC3)C2)C1` (single isomer, unassigned) [1-27 Isomer 2, ethyl 2-[4-(5-ethyl-1H-1,2,4-triazol-3-yl)piperidin-1-yl]-6-azaspiro[3.4]octane-6-carboxylate], in assay [1], the EC50 is 1000 nM and the Emax came to 27%. Further, in assay [2], the EC50 is 398 nM and the Emax was determined as 41%.

Regarding `CCOC(=O)N1CCC2(CC(N3CCC(c4nnco4)CC3)C2)C1` (single isomer, unassigned) [1-28 Isomer 2, ethyl 2-[4-(1,3,4-oxadiazol-2-yl)piperidin-1-yl]-6-azaspiro[3.4]octane-6-carboxylate], in assay [1], the EC50 is 2000 nM and the Emax stood at 57%. Also, in assay [2], the EC50 is 501 nM and the maximal effect (Emax) came to 60%.

With `CCOC(=O)N1CCC2(CC(N3CCC(c4nc(C)no4)CC3)C2)C1` (single isomer, unassigned) [1-29 Isomer 2, ethyl 2-[4-(3-methyl-1,2,4-oxadiazol-5-yl)piperidin-1-yl]-6-azaspiro[3.4]octane-6-carboxylate], in assay [1], the EC50 is 794 nM and the Emax stood at 44%. For the same molecule, in assay [2], the EC50 was 126 nM and the Emax is 36%.

With `CCOC(=O)N1CCC2(CC(N3CCC(c4nnn[nH]4)CC3)C2)C1` (single isomer, unassigned) [1-31 Isomer 2, ethyl 2-[4-(1H-tetrazol-5-yl)piperidin-1-yl]-6-azaspiro[3.4]octane-6-carboxylate], in assay [1], the EC50 is 2510 nM and the Emax worked out at 34%. In addition, in assay [2], the EC50 was 100 nM and the Emax was 40%.

In the case of `CCOC(=O)N1CCC2(CC(N3CCC(n4ccnn4)CC3)C2)C1` (single isomer, unassigned) [1-35 Isomer 2, ethyl 2-[4-(1H-1,2,3-triazol-1-yl)piperidin-1-yl]-6-azaspiro[3.4]octane-6-carboxylate], in assay [1], the EC50 is 398 nM and the Emax was determined as 80%. Moreover, in assay [2], the EC50 was 200 nM and the maximal effect (Emax) amounted to 61%.

As to `COC(=O)N1CCC2(CC(N3CCC(c4nccn4C)CC3)C2)C1` (stereo not drawn) [Example 1-6, methyl 2-[4-(1-methyl-1H-imidazol-2-yl)piperidin-1-yl]-6-azaspiro[3.4]octane-6-carboxylate], the “selectivity for the M4 receptor relative to the M1 receptor” value in assay [2] is on record as “highly selective for the M4 receptor relative to the M1 receptor”.

With `COC(=O)N1CCC2(CC(N3CCC(c4ncc(C)n4C)CC3)C2)C1` (stereo not drawn) [Example 1-9, methyl 2-[4-(1,5-dimethyl-1H-imidazol-2-yl)piperidin-1-yl]-6-azaspiro[3.4]octane-6-carboxylate], the “selectivity for the M4 receptor relative to the M1 receptor” value in assay [2] is given as “highly selective for the M4 receptor relative to the M1 receptor”.

As to `CCOC(=O)N1CCC2(CC(N3CCC(c4ccnn4C)CC3)C2)C1` (stereo not drawn) [Example 1-21, ethyl 2-[4-(1-methyl-1H-pyrazol-5-yl)piperidin-1-yl]-6-azaspiro[3.4]octane-6-carboxylate], the “selectivity for the M4 receptor relative to the M1 receptor” value in assay [2] is “highly selective for the M4 receptor relative to the M1 receptor”.

Take `CCOC(=O)N1CCC2(CC(N3CCC([C@@H]4CCCN4C(=O)NC)CC3)C2)C1` (stereo partly drawn) [Example 2-17, ethyl 2-{4-[(2S)-1-(methylcarbamoyl)pyrrolidin-2-yl]piperidin-1-yl}-6-azaspiro[3.4]octane-6-carboxylate]: the “selectivity for the M4 receptor relative to the M1 receptor” value in assay [2] is reported as “highly selective for the M4 receptor relative to the M1 receptor”.
